Read-outs that look alike come from different tables or passages of the source.
Tests used:
[1] = rat, in vivo, po; cited from earlier work
hematopoietic cells [2] = test: Chemoprotection: in vivo protection of hematopoietic cells by compound II in CY-treated mice (Example 4); parameters: species or system C57BL/6 mice
Protocol: (§1) Female C57BL/6 mice, 6 to 8 weeks old, were immunosuppressed by treatment with 200 mg/kg of cyclophosphamide (CY) administered intravenously at day 0. To examine the chemoprotective effect of compound I, mice were pre-treated intraperitoneally at day −3, −2 and −1 with 50 mg/kg of the compound. Mice were sacrificed at day +5 by cardiac puncture and cervical dislocation. Then, cell suspensions were prepared from thymus, spleen and bone marrow as follows.
(§2) Tissues were crushed in PBS buffer and contaminating erythrocytes were lysed in ACK buffer (155 mM NH4Cl, 12 mM NaHCO3, 0.1 mM EDTA, pH 7.3) for five minutes. Cells were then collected by centrifugation and washed three times in PBS and resuspended in tissue culture medium. Cells were counted with a Coulter counter.
The effect of compound II on in vivo induction of hematopoietic cell proliferation or protection was determined following the protocol described in Example 1. Oral administration of compound II (50 mg/kg or 100 mg/kg) was performed on day −3, −2 and −1.

hematopoietic cells [3] = test: Chemoprotection: combination of histamine dihydrochloride and compound II in CY-treated mice (Example 7); assay type: in vivo, C57BL/6 mice; settings: histamine dihydrochloride 25 mg/kg i.v. and/or compound II 100 mg/kg oral, day −3, −2, −1, compared to CY
Protocol: as §1, §2
Effect of low dose of histamine, compound II, and the combination of both compounds on in vivo induction of hematopoietic cell proliferation or protection was undertaken following the protocol described in Example 1. Intravenous administration of histamine dihydrochloride (25 mg/kg) and oral administration of compound II (100 mg/kg) were performed on day −3, −2 and −1.

hematopoietic cells [4] = test: Chemoprotection: in vivo protection of hematopoietic cells by compound I in CY-immunosuppressed mice (Example 1); parameters: species or system C57BL/6 mice; settings: for Cell count, peripheral blood white cells / Cell count, spleen red cells / Cell count, spleen white cells: CY 200 mg/kg i.v. day 0, compound I 50 mg/kg i.p. day −3, −2, −1, sacrifice day +5
Protocol: as §1, §2

bone marrow red cells = test: Chemoprotection: combination of tricaprin and compound I in CY-treated mice, bone marrow red cell count (Example 3); assay type: in vivo, C57BL/6 mice; settings: tricaprin 60.5 mM oral and/or compound I 50 mg/kg peritoneal injection, day −3, −2, −1
Protocol: as §1, §2
(§3) The effect of tricaprin, compound I, and the combination of both compounds on in vivo induction of hematopoietic cell proliferation or protection was determined following the protocol described in Example 1. Oral administration of tricaprin (60.5 mM) and/or peritoneal injection of compound I were performed on day −3, −2 and −1.

[5] = test system: bone marrow progenitor cell; test: Bone marrow progenitor cells (CFU-GEMM) after tricaprin, compound I or both in CY-treated mice (Example 3); assay type: in vivo, C57BL/6 mice; settings: tricaprin 60.5 mM oral and/or compound I 50 mg/kg
Protocol: as §1, §3

hematopoietic cells [6] = test: Chemoprotection: combination of histamine dihydrochloride and compound I in CY-treated mice (Example 6); assay type: in vivo, C57BL/6 mice; settings: for Effect on bone marrow white cell count (FIG. 5): intravenous histamine dihydrochloride 25 mg/kg and/or compound I 5 mg/kg, day −3, −2, −1, CY-treated mice, compared to CY
Protocol: (§4) Mice were sacrificed at day +5 by cardiac puncture and cervical dislocation. Then, cell suspensions were prepared from thymus, spleen and bone marrow as follows. Tissues were crushed in PBS buffer and contaminating erythrocytes were lysed in ACK buffer (155 mM NH4Cl, 12 mM NaHCO3, 0.1 mM EDTA, pH 7.3) for five minutes. Cells were then collected by centrifugation and washed three times in PBS and resuspended in tissue culture medium. Cells were counted with a Coulter counter. Effect of low dose of histamine, compound I, and the combination of both compounds on in vivo induction of hematopoietic cell proliferation or protection was undertaken following the protocol described in Example 1.

hematopoietic cells [7] = test: Chemoprotection: combination of sodium caprate and compound I in CY-treated mice (Example 2); assay type: in vivo, C57BL/6 mice; settings: for Effect on bone marrow red cell count (FIG. 2) / Effect on bone marrow white cell count (FIG. 3): low dose, intravenous: sodium caprate 1.21 mM, compound I 5 mg/kg, sodium caprate or compound I used alone; for Effect on peripheral red blood cell count (FIG. 1): sodium caprate 60.5 mM oral and/or compound I 50 mg/kg i.p., day −3, −2, −1, versus respective CY control
hematopoietic cells [8] = test: Chemoprotection: combination of sodium caprate and compound II in CY-treated mice (Example 5); assay type: in vivo, C57BL/6 mice; settings: oral sodium caprate 60.5 mM and/or compound II 50 mg/kg or 100 mg/kg, day −3, −2, −1
Protocol: as §4, with “The effect” for “Effect”, “sodium caprate,” for “low dose of histamine,”, “II,” for “I,”, “determined” for “undertaken”

MC-38 colon cancer = test: Survival of mice with MC-38 colon cancer treated with a toxic regimen of 5-fluorouracil; assay type: in vivo; settings: compound I plus toxic regimen of 5-fluorouracil versus 5-fluorouracil alone (e.g., 40 mg/kg)
CTLs = settings: compared with interleukin 2; cited from earlier work
[9] = cited from earlier work
[10] = i.v., rat; cited from earlier work
[11] = CY + compound II 50 mg/kg oral, day −3, −2, −1
[12] = CY + compound II 100 mg/kg oral, day −3, −2, −1
[13] = oral pre-treatment in CY-treated mice, dose not given
[14] = CY alone (200 mg/kg i.v. day 0)
[15] = pre-treatment 50 mg/kg i.p. in CY-treated mice, versus CY

## CCCCCCCC(=O)O [caprylic acid]
[1]
  LD50: 10080 mg/kg

## CN(C)c1ncnc2c1ncn2CCCCCO [compound II]
Hematopoietic cells [2]; [11]
  Cell count, bone marrow red cells: 29.4 ± 2.7 10^6
  Cell count, bone marrow white cells: 17.4 ± 3.5 10^6
Hematopoietic cells [2]; [12]
  Cell count, bone marrow red cells: 43.9 ± 16.3 10^6
  Cell count, bone marrow white cells: 30.5 ± 9.4 10^6
Hematopoietic cells [2]; oral pre-treatment in CY-treated mice
  Bone marrow red and white cell counts compared to non-immunosuppressed animals (control): some treated animals return to a “baseline level”
Hematopoietic cells [2]; [13]
  Effect on bone marrow red cell count (in words): significant increase
  Effect on bone marrow white cell count (in words): significant increase
Hematopoietic cells [3]
  Effect on spleen white cell count (FIG. 7): No significant effect

## O=P1(N(CCCl)CCCl)NCCCO1 (stereo not shown) [CY, cyclophosphamide, reference compound]
Hematopoietic cells [4]
  Cell count, peripheral blood white cells: 1.3 ± 0.6 10^6
  Cell count, spleen red cells: 341 ± 107 10^6
  Cell count, spleen white cells: 34. ± 9 10^6
Bone marrow red cells
  Bone marrow red cell count: 31.5 ± 3.5 10^6
[5]
  CFU-GEMM (colony number), bone marrow: 1 colony number
Hematopoietic cells [2]; [14]
  Cell count, bone marrow red cells: 31.6 ± 5.0 10^6
  Cell count, bone marrow white cells: 19.8 ± 4.4 10^6

## Cl.Cl.NCCc1c[nH]cn1 [histamine, histamine dihydrochloride]
Hematopoietic cells [6]; histamine alone, general statement
  Stimulation of hematopoiesis: weakly stimulate hematopoiesis
Hematopoietic cells [6]
  Effect on bone marrow white cell count (FIG. 5): No significant effect
Hematopoietic cells [3]
  Effect on spleen white cell count (FIG. 7): No significant effect

## CCCCCCCCCC(=O)[O-].[Na+] [sodium caprate]
Hematopoietic cells [7]
  Effect on bone marrow red cell count (FIG. 2): No effect
  Effect on bone marrow white cell count (FIG. 3): No effect
  Effect on peripheral red blood cell count (FIG. 1): significant increase
Hematopoietic cells [8]
  Effect on peripheral red blood cell count (FIG. 4): weak increase

## CCCCCCCCCC(=O)OCC(COC(=O)CCCCCCCCC)OC(=O)CCCCCCCCC [Tricaprin, tricaprin]
Bone marrow red cells
  Bone marrow red cell count: 33.8 ± 3.7 10^6
[5]
  CFU-GEMM (colony number), bone marrow: 0.5 colony number

## CN(C)c1ncnc2c1ncn2CCCCCOC(=O)NC(CCCNC(=N)N)C(=O)O (stereo not drawn) [compound I, [[5-[6-(N,N-dimethylamino)purin-9-yl]pentoxy]-carbonyl]d-arginine]
Hematopoietic cells [4]
  Cell count, peripheral blood white cells: 2.6 ± 0.6 10^6
  Cell count, spleen red cells: 468 ± 104 10^6
  Cell count, spleen white cells: 48 ± 5 10^6
Hematopoietic cells [4]; pre-treatment 50 mg/kg i.p. in CY-treated mice
  Spleen red cell count compared to non-immunosuppressed animals (control): some treated animals returned to a “baseline level”
Hematopoietic cells [4]; [15]
  Effect on peripheral white blood cell count (in words): significant increase
  Effect on spleen red cell count (in words): significant increase
  Effect on spleen white cell count (in words): significant increase
Hematopoietic cells [7]
  Effect on bone marrow red cell count (FIG. 2): No effect
  Effect on bone marrow white cell count (FIG. 3): No effect
  Effect on peripheral red blood cell count (FIG. 1): significant increase
Bone marrow red cells
  Bone marrow red cell count: 37.4 ± 7.1 10^6
[5]
  CFU-GEMM (colony number), bone marrow: 1 colony number
Hematopoietic cells [6]
  Effect on bone marrow white cell count (FIG. 5): No significant effect
MC-38 colon cancer
  Survival of animals: improved survival
CTLs
  In vitro stimulation of CTLs: comparable to the immune growth factor or cytokine interleukin 2
[9]
  In vivo antitumor activity: significant in vivo antitumor activity
[10]
  LD50: more than 500 mg/kg

## c1ccc([C@H]2CN3CCSC3=N2)cc1 [levamisole, reference compound]
[10]
  LD50: 16 mg/kg

Source: patent publication US20080090848A1, “Substituted Purinyl Derivatives With Immunomodulator And Chemoprotective Activity And Use Alone Or With Medium-Chain Length Fatty Acids Or Glycerides” (priority 2004, published 2008)
